What was measured:
[1] = Phase II clinical studies, at week 12; cited from earlier work
recombinant human PKR = recombinant human PKR (Homo sapiens, UniProt P30613); test: pyruvate kinase (PKR) activity test, activation of recombinant enzyme (fluorescence kit); format: biochemical
Method: To test the activation effect of the compound of the present disclosure on recombinant human PKR.
3.1 A recombinant human PKR enzyme solution was prepared at a concentration of 60 ng/well (a 20 µL reaction system), and 5 µL of the solution was added into each well of a black transparent bottom 384-well plate.
3.2 Compound solutions were prepared at different concentrations, with the final concentrations of 1000/300/100 nM (containing 1% DMSO). Each 5 µL of the compound solution was added into the plate in step 3.1 and mixed well. The plate was incubated at room temperature for 10 min.
3.3 A reaction system was prepared according to the instructions of a kit (as shown in the table below), and 10 µL of the reaction system was added into each well of the 384-well plate, and mixed uniformly with the solution in step 3.2.
3.4 The 384-well plate was placed on a microplate reader to detect the fluorescence value at 540/590 nm, where the value was read every 2 minutes and the detection was conducted continuously for 1 hour.
3.5 The Slope value within the detection time was calculated, and the 1% DMSO well was used as a control well to calculate a compound activation rate. Activation rate % = (Slopeofcompoundwell/Slopeofcontrolwell) × 100% [formula]
With the log value of the compound concentration as the X axis and the percentage activation rate as the Y axis, a dose-effect curve was fitted with the log(agonist) vs. response-variable slope of the analysis software GraphPad Prism 5, and the AC50 value of the activity of each compound against PKR was obtained. Y = min + (max−min)/(1+10^(∧)((LogAC50−X)×Hillslope)). [formula]

[2] = molecular target: T1, PKR in ex vivo red blood cells from healthy individuals (Homo sapiens, UniProt P30613); test: ex vivo pyruvate kinase (PKR) activity experiment, red blood cells of healthy individuals; format: cell-based; settings: 3 hours co-cultivation
T1 construct: endogenous in cells; host or cells: human red blood cells isolated from fresh peripheral blood of healthy individuals
T1 sequence (P30613 whole entry): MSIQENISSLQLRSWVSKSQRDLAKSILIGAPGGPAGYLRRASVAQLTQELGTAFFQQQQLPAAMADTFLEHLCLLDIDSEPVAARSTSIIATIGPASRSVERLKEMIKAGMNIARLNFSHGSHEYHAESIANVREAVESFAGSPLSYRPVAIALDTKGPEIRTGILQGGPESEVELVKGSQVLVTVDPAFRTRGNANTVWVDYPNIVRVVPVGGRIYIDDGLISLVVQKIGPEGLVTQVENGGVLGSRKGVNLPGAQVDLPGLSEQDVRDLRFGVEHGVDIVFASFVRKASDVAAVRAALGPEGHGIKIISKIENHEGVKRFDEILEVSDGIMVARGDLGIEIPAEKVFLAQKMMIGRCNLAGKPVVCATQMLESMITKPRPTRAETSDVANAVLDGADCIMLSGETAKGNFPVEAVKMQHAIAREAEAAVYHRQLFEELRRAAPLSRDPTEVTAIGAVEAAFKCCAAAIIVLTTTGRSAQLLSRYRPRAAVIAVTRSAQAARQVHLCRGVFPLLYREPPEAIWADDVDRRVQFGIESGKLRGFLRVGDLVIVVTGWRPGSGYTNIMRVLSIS
How it was run: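 Washed, Percoll-purified human RBCs at 1 × 10^7 cells/mL were exposed to compound (final 1–3000 nM, 1% DMSO) for 3 h at 37°C, then lysed. PKR activity in lysate was followed kinetically by fluorescence at 540/590 nm over 1 h. Slope versus 1% DMSO control gave % activation; AC50 from variable-slope fit.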

recombinant human PKR, sequence (P30613 whole entry): as above

| AC50 (recombinant human PKR) | AC50 [2] | SMILES | average increase in HGB [1] | patients achieved an increase in HGB of 1.0 g/dL [1] |
| --- | --- | --- | --- | --- |
| – | – | O=C(c1ccc(NS(=O)(=O)c2cccc3cccnc23)cc1)N1CCN(CC2CC2)CC1 [Mitapivat] | 1.34 g/dL | 92.3% |
| 300 to 1000 nM | 300 to 1000 nM | CC(C)(O)C(C(=O)N1CC(=C2CN(S(=O)(=O)c3ccccn3)C2)C1)c1ccccc1 (stereo not shown) [Compound 62, 3-hydroxy-3-methyl-2-phenyl-1-(1'-(pyridin-2-ylsulfonyl)-1',4'-dihydro-2H,2'H-[3,3'-diazetidinylidene]-1(4H)-yl)butan-1-one] | – | – |
